Reference: PMC8430952 (International Journal of Molecular Sciences, 2021)
Residue numbers refer to the chain shown, from its start. Values belong to the molecule of their own block, whether it stands above or below them. No end group written: not given here.

Tests used:
[1] = target: T1, ATAD2 bromodomain (BRD), residues 981–1108 (Homo sapiens, UniProt Q6PL18); test: ITC of histone peptides with the wild-type ATAD2 bromodomain; format: binding; details: for N-Value (stoichiometry of binding, peptide-to-bromodomain ratio) / ATAD2 BRD KD: ITC, 5 °C; for N-Value (stoichiometry of binding, peptide-to-bromodomain ratio): ATAD2 BRD (residues 981–1108, wild type), one set of sites model; for Kd: SD; for ATAD2 BRD KD: 150 mM NaH2PO4 and 150 mM NaCl, 5 mM peptide titrated into 0.2 mM ATAD2 BRD (residues 981–1108, wild type), 1:1 binding model, mean ± SD of three runs, no binding repeated in duplicate
T1 construct: Residues 981–1108 encoding the 128 amino acid ATAD2 BRD were PCR amplified; GST (with PreScission Protease site) (N, cleaved yes); made in house; host or cells: E. coli Rosetta 2(DE3) pLysS (non-codon-optimized) or BL21(DE3) pLysS (codon-optimized)
T1 sequence (Q6PL18 981-1108): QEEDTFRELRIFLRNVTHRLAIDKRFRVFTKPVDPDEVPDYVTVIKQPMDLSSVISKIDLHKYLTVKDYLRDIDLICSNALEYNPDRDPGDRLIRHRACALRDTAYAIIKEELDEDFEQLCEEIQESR
Procedure: (§1) Purified protein was concentrated to a volume of 3 mL and dialyzed into ITC buffer (150 mM NaH2PO4 and 150 mM NaCl) for 48 h. ITC experiments with histone peptides were carried out at 5 °C using a MicroCal iTC200 (Malvern Panalytical, Westborough, MA, USA). […] The stirring speed was set at 750 RPM. After excluding the first injection, the ITC binding isotherms were integrated using a Marquandt nonlinear least-squares analysis according to a 1:1 binding model assuming a single set of identical binding sites with the Origin 7.0 program (OrginLab Corporation, Northampton, MA, USA). The raw data were corrected for non-specific heats of dilution determined by the magnitude of the peaks appearing after the system reaches complete saturation. The obtained heats of dilution were analyzed according to a one set of sites binding model and used to calculate binding affinities, N values, and thermodynamic values. […] The mean Kd was calculated from the average of the three runs, and the standard deviation was calculated from the mean.

[2] = target: histone H4K8ac (Homo sapiens) (UniProt P62805); test: ITC; details: cited from earlier work
[3] = target: histone H4K5ac (Homo sapiens) (UniProt P62805); test: ITC; details: cited from earlier work
ATAD2 BRD mutant I1074A = target: T2, ATAD2 BRD mutant I1074A (Homo sapiens, UniProt Q6PL18, I1074A); test: ITC of histone peptides with the ATAD2 bromodomain mutant I1074A; format: binding; details: ATAD2 (residues 981–1108) I1074A mutant bromodomain
T2 construct: ATAD2 (residues 981–1108) with a N1064A/I1074A/I1074Y mutation; GST (with PreScission Protease site) (N, cleaved yes); made in house; host or cells: E. coli
T2 sequence (Q6PL18 981-1108 I1074A): T1 sequence (Q6PL18 981-1108) with I94A
Procedure: as §1

ATAD2 BRD mutant N1064A = target: T3, ATAD2 BRD mutant N1064A (Homo sapiens, UniProt Q6PL18, N1064A); test: ITC of histone peptides with the ATAD2 bromodomain mutant N1064A; format: binding; details: ATAD2 (residues 981–1108) N1064A mutant bromodomain
T3 construct: ATAD2 (residues 981–1108) with a N1064A/I1074A/I1074Y mutation; GST (with PreScission Protease site) (N, cleaved yes); made in house; host or cells: E. coli
T3 sequence (Q6PL18 981-1108 N1064A): T1 sequence (Q6PL18 981-1108) with N84A
Procedure: as §1

ATAD2 BRD mutant I1074Y = target: T4, ATAD2 BRD mutant I1074Y (Homo sapiens, UniProt Q6PL18, I1074Y); test: ITC of histone peptides with the ATAD2 bromodomain mutant I1074Y; format: binding; details: ATAD2 (residues 981–1108) I1074Y mutant bromodomain
T4 construct: ATAD2 (residues 981–1108) with a N1064A/I1074A/I1074Y mutation; GST (with PreScission Protease site) (N, cleaved yes); made in house; host or cells: E. coli
T4 sequence (Q6PL18 981-1108 I1074Y): T1 sequence (Q6PL18 981-1108) with I94Y
Procedure: as §1

[4] = target: T5, ATAD2 bromodomain (residues 966–1112, C1101A) (Homo sapiens, UniProt Q6PL18, C1101A); test: ITC of histone H4 peptides with the longer ATAD2 bromodomain construct; format: binding; details: for N-Value (stoichiometry of binding): ITC, 5 °C, ATAD2 bromodomain residues 966–1112, C1101A; for Kd: SD, read-out: KD from ITC
T5 construct: GST (with PreScission protease cleavage site) (N, cleaved yes); made in house; host or cells: E. coli BL21(DE3) pLysS
T5 sequence (Q6PL18 966-1112 C1101A): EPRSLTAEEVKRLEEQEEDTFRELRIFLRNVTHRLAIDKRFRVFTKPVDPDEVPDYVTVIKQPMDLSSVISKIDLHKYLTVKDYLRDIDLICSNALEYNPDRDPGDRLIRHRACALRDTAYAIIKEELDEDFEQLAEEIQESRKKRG
Procedure: as §1

histone H4K12ac 4-17 = target: T6, histone H4K12ac 4-17 (Homo sapiens, UniProt P62805); test: ITC
T6 chain: RGKGGKGLGK(Ac)GGAK

histone H4K5acK8ac 1-10 = target: T7, histone H4K5acK8ac 1-10 (Homo sapiens, UniProt P62805); test: ITC
T7 chain: MSGRGK(Ac)GGK(Ac)G

N-Value (stoichiometry of binding, peptide-to-bromodomain ratio) [1]: 1.144
Kd [1]: 1130 ± 122 µM
Molecule: SGRGKGGK(Ac)GL-NH2 [H4K8ac (res 1–10)]

N-Value (stoichiometry of binding, peptide-to-bromodomain ratio) [1]: 0.997
Kd [1]: 38.9 ± 5.9 µM
Molecule: SGRGK(Ac)QGGKARA-NH2 [H2AK5ac (res 1–12)]

N-Value (stoichiometry of binding, peptide-to-bromodomain ratio) [1]: 1.169
Kd [1]: 392 ± 19.5 µM
Molecule: CC(=O)NCCCC[C@H](NC(=O)CNC(=O)CN)C(=O)NCC(=O)N[C@@H](CC(C)C)C(=O)NCC(=O)N[C@@H](CCCCNC(C)=O)C(=O)NCC(=O)NCC(=O)N[C@@H](C)C(N)=O [H4K8acK12ac (res 6–15)]

ATAD2 BRD KD [1]: No Binding
Molecule: ARTKQTARKSTG [H3 unmodified (res 1–12), unmodified histone H3 tail peptide, residues 1–12]

Molecule: ATAD2 bromodomain (from UniProt Q6PL18)
Kd [2]: 1130 µM
Kd [3]: 44.5 µM

KD (ATAD2 BRD mutant I1074A): No binding
N-Value (stoichiometry of binding, peptide-to-bromodomain ratio) [1]: 1.170
Kd [1]: 95.1 ± 13.1 µM
KD (ATAD2 BRD mutant N1064A): No binding
KD (ATAD2 BRD mutant I1074Y): No binding
Molecule: CC(=O)NCCCC[C@H](NC(=O)CNC(=O)[C@H](CC(C)C)NC(=O)CNC(=O)[C@H](CCCCN)NC(=O)CNC(=O)CNC(=O)[C@H](CCCCN)NC(=O)CN)C(=O)NCC(=O)NCC(=O)N[C@@H](C)C(=O)N[C@@H](CCCCN)C(=O)N[C@@H](CCCNC(=N)N)C(N)=O [H4K12ac (res 4–17)]

N-Value (stoichiometry of binding, peptide-to-bromodomain ratio) [1]: 1.082
Kd [1]: 303 ± 18.7 µM
Molecule: LGK(Ac)GGAK(Ac)RHRK-NH2 [H4K12acK16ac (res 10–20)]

ATAD2 BRD KD [1]: No Binding
Molecule: GKGGKGLGKGGAKR [H4 unmodified (res 4–17), unmodified histone H4 tail peptide, residues 4–17; free N-terminus, amidated C-terminus]

KD (ATAD2 BRD mutant I1074A): No binding
N-Value (stoichiometry of binding, peptide-to-bromodomain ratio) [1]: 0.938
Kd [1]: 33.2 ± 5.9 µM
N-Value (stoichiometry of binding) [4]: 0.974
Kd [4]: 15.9 ± 2.5 µM
KD (ATAD2 BRD mutant N1064A): No binding
KD (ATAD2 BRD mutant I1074Y): No binding
Molecule: SGRGK(Ac)GGK(Ac)GL-NH2 [H4K5acK8ac (res 1–10)]

ATAD2 BRD KD [1]: No Binding
Molecule: ARTKQTARKacSTG [H3K9ac (res 1–12), histone H3 tail peptide, residues 1–12, acetylated at K9]

N-Value (stoichiometry of binding, peptide-to-bromodomain ratio) [1]: 1.070
Kd [1]: 44.5 ± 3.3 µM
N-Value (stoichiometry of binding) [4]: 1.021
Kd [4]: 10.1 ± 1.3 µM
Molecule: SGRGK(Ac)GGKGL-NH2 [H4K5ac (res 1–10)]

ATAD2 BRD KD [1]: No Binding
ATAD2 BRD KD ([1]; listed as H3K14ac): did not observe any binding
Molecule: RKSTGGKacAPRKQ [H3K14ac (res 8–19), histone H3 tail peptide, residues 8–19, acetylated at K14]

ATAD2 BRD KD [1]: No Binding
ATAD2 BRD KD ([1]; listed as H4K5ac (4–17)): complete lack of binding
Molecule: GKacGGKGLGKGGAKR [H4K5ac (res 4–17), histone H4 tail peptide, residues 4–17, acetylated at K5]

ATAD2 BRD KD [1]: No Binding
Molecule: LGKGGAKacRHRK [H4K16ac (res 10–20), histone H4 tail peptide, residues 10–20, acetylated at K16]

ATAD2 BRD KD [1]: No Binding
ATAD2 BRD KD ([1]; listed as H5K8ac (4–17)): complete lack of binding
Molecule: GKGGKacGLGKGGAKR [H4K8ac (res 4–17), histone H4 tail peptide, residues 4–17, acetylated at K8]

ATAD2 BRD KD [1]: No Binding
Molecule: RKSTGGKAPRKacQ [H3K18ac (res 8–19), histone H3 tail peptide, residues 8–19, acetylated at K18]

Kd (histone H4K12ac 4-17): 95.1 µM
Kd (histone H4K5acK8ac 1-10): 33.2 µM
B1: ATAD2 bromodomain (protein)
chain: RLEEQEEDTFRELRIFLRNVTHRLAIDKRFRVFTKPVDPDEVPDYVTVIKQPMDLSSVISKIDLHKYLTVKDYLRDIDLICSNALEYNPDRDPGDRLIRHRACALRDTAYAIIKEELDE
